Our source for the IC50 values is PubChem BioAssay AID1671295.

The target of the test is Receptor tyrosine-protein kinase erbB-4 (Homo sapiens) (UniProt Q15303). Put plainly: inhibition of HER4 tyrosine kinase activity – biochemical, Z'-LYTE FRET, direct format, recombinant human, dose response (AID 1671295). The settings on record: recombinant ERBB4.
Receptor tyrosine-protein kinase erbB-4 (Homo sapiens), sequence (Q15303 whole entry, looked up): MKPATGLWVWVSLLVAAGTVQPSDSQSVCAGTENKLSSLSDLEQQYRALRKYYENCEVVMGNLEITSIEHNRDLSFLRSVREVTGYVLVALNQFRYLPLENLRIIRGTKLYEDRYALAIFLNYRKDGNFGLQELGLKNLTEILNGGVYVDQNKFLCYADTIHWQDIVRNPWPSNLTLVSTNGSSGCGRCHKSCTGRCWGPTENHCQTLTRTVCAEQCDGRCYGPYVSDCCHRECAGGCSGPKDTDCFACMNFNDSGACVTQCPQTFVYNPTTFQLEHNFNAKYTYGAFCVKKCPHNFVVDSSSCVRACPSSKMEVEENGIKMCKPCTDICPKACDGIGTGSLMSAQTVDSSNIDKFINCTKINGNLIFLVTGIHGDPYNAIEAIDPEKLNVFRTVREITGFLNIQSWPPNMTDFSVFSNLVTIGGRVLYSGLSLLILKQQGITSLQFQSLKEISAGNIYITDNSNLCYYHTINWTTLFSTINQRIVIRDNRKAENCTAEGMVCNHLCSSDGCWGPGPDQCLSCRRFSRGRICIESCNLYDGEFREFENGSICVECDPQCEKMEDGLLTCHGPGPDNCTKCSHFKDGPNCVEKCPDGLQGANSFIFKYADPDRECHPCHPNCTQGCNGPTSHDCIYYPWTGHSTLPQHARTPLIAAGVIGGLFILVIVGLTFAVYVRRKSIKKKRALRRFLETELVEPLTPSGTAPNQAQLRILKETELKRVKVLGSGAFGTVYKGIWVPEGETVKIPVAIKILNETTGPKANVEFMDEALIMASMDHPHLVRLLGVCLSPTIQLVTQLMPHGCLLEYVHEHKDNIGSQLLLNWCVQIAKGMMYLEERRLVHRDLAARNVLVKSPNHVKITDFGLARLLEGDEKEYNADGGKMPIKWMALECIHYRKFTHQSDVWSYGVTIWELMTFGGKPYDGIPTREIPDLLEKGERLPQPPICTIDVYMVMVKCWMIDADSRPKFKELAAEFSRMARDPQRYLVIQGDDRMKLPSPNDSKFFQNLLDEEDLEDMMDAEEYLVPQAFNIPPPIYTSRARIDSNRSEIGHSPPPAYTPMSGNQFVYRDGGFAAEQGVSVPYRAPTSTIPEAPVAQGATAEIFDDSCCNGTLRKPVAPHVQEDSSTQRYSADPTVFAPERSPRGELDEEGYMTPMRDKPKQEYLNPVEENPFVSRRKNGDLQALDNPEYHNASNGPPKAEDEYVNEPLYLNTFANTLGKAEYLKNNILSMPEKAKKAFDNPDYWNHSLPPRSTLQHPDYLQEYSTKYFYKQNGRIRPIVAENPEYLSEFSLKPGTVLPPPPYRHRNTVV

One may read the IC50 as the concentration needed to halve the response being measured. Turning to `COc1cc2ncnc(Nc3cccc(Cl)c3)c2cc1OC`, the IC50 was 154 nM.
